# Test results as given in PubChem BioAssay AID1963447 (Molecular Pharmacology Branch, DTP, NCI, 2024).
# Tested on: 885512-296-R-J2-PDC complex spheroid growth, % test/control
# Assay: Anticancer human tumor 885512-296-R-J2-PDC patient-derived breast carcinoma cell line growth inhibition [Asc]
# Settings: for IC50: curve of first compound; for viability, T/C: stronger effect = lower value
# In short: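 Stromal components (HUVEC and hMSC) are co-assembled with the cancer cells into multicellular spheroids. Drugs are then added singly or paired, at concentrations falling by half-log increments from a clinically achievable maximum, capped at 10 microM without known Cmax.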
# 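Further: spheroids exposed to compounds for seven days.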
# 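Wherever viability, T/C is given: 100% = DMSO vehicle control wells.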
smiles,measurement,setting,value
Cn1ncnc1[C@H]1c2n[nH]c(=O)c3cc(F)cc(c23)N[C@@H]1c1ccc(F)cc1 + CCN1C(C(=O)NC23CCC(C(=O)O)(CC2)CC3)C(c2cccc(Cl)c2F)C2(C(=O)Nc3cc(Cl)ccc32)C12CCCCC2,IC50,second compound 0.03 µM,37.8 nM
same,IC50,second compound 0.0949 µM,54.2 nM
same,IC50,second compound 0.3 µM,21 nM
same,IC50,second compound 0.949 µM,23.5 nM
same,IC50,second compound 3 µM,< 0.316 nM
same,"viability, T/C","second compound 0.03 µM, first compound 0.000316 µM",88.7%
same,"viability, T/C","second compound 0.03 µM, first compound 0.001 µM",107%
same,"viability, T/C","second compound 0.03 µM, first compound 0.00316 µM",91.6%
same,"viability, T/C","second compound 0.03 µM, first compound 0.01 µM",66.9%
same,"viability, T/C","second compound 0.03 µM, first compound 0.0316 µM",58%
same,"viability, T/C","second compound 0.03 µM, first compound 0.1 µM",35.5%
same,"viability, T/C","second compound 0.0949 µM, first compound 0.000316 µM",91%
same,"viability, T/C","second compound 0.0949 µM, first compound 0.001 µM",101%
same,"viability, T/C","second compound 0.0949 µM, first compound 0.00316 µM",93.3%
same,"viability, T/C","second compound 0.0949 µM, first compound 0.01 µM",76.2%
same,"viability, T/C","second compound 0.0949 µM, first compound 0.0316 µM",57%
same,"viability, T/C","second compound 0.0949 µM, first compound 0.1 µM",43.1%
same,"viability, T/C","second compound 0.3 µM, first compound 0.000316 µM",80.5%
same,"viability, T/C","second compound 0.3 µM, first compound 0.001 µM",90.8%
same,"viability, T/C","second compound 0.3 µM, first compound 0.00316 µM",88%
same,"viability, T/C","second compound 0.3 µM, first compound 0.01 µM",60%
same,"viability, T/C","second compound 0.3 µM, first compound 0.0316 µM",49.2%
same,"viability, T/C","second compound 0.3 µM, first compound 0.1 µM",35.2%
same,"viability, T/C","second compound 0.949 µM, first compound 0.000316 µM",80.2%
same,"viability, T/C","second compound 0.949 µM, first compound 0.001 µM",72.6%
same,"viability, T/C","second compound 0.949 µM, first compound 0.00316 µM",63.1%
same,"viability, T/C","second compound 0.949 µM, first compound 0.01 µM",60.5%
same,"viability, T/C","second compound 0.949 µM, first compound 0.0316 µM",47.7%
same,"viability, T/C","second compound 0.949 µM, first compound 0.1 µM",35.3%
same,"viability, T/C","second compound 3 µM, first compound 0.000316 µM",43.9%
same,"viability, T/C","second compound 3 µM, first compound 0.001 µM",40.2%
same,"viability, T/C","second compound 3 µM, first compound 0.00316 µM",41.8%
same,"viability, T/C","second compound 3 µM, first compound 0.01 µM",38.4%
same,"viability, T/C","second compound 3 µM, first compound 0.0316 µM",40.2%
same,"viability, T/C","second compound 3 µM, first compound 0.1 µM",31.6%
NC1CCC(NC2CC2c2ccccc2)CC1 (stereo not given) + Cc1c(S(C)(=O)=O)c(-c2cc(F)cc(N3CCN(c4ccc(NS(=O)(=O)c5ccc(NC(CCN6CCC(C(=O)OCCCP(=O)(O)O)CC6)CSc6ccccc6)c(S(=O)(=O)C(F)(F)F)c5)cc4)CC3)c2)c(-c2ccc(Cl)cc2)n1C(C)C,IC50,second compound 0.1 µM,> 100 nM
same,IC50,second compound 0.316 µM,> 100 nM
same,IC50,second compound 1 µM,> 100 nM
same,IC50,second compound 3.16 µM,> 100 nM
same,IC50,second compound 10 µM,> 100 nM
same,"viability, T/C","second compound 0.1 µM, first compound 0.000316 µM",124%
same,"viability, T/C","second compound 0.1 µM, first compound 0.001 µM",127%
same,"viability, T/C","second compound 0.1 µM, first compound 0.00316 µM",122%
same,"viability, T/C","second compound 0.1 µM, first compound 0.01 µM",123%
same,"viability, T/C","second compound 0.1 µM, first compound 0.0316 µM",123%
same,"viability, T/C","second compound 0.1 µM, first compound 0.1 µM",113%
same,"viability, T/C","second compound 0.316 µM, first compound 0.000316 µM",121%
same,"viability, T/C","second compound 0.316 µM, first compound 0.001 µM",126%
same,"viability, T/C","second compound 0.316 µM, first compound 0.00316 µM",118%
same,"viability, T/C","second compound 0.316 µM, first compound 0.01 µM",108%
same,"viability, T/C","second compound 0.316 µM, first compound 0.0316 µM",127%
same,"viability, T/C","second compound 0.316 µM, first compound 0.1 µM",122%
same,"viability, T/C","second compound 1 µM, first compound 0.000316 µM",109%
same,"viability, T/C","second compound 1 µM, first compound 0.001 µM",115%
same,"viability, T/C","second compound 1 µM, first compound 0.00316 µM",122%
same,"viability, T/C","second compound 1 µM, first compound 0.01 µM",116%
same,"viability, T/C","second compound 1 µM, first compound 0.0316 µM",123%
same,"viability, T/C","second compound 1 µM, first compound 0.1 µM",121%
same,"viability, T/C","second compound 3.16 µM, first compound 0.000316 µM",112%
same,"viability, T/C","second compound 3.16 µM, first compound 0.001 µM",116%
same,"viability, T/C","second compound 3.16 µM, first compound 0.00316 µM",116%
same,"viability, T/C","second compound 3.16 µM, first compound 0.01 µM",111%
same,"viability, T/C","second compound 3.16 µM, first compound 0.0316 µM",113%
same,"viability, T/C","second compound 3.16 µM, first compound 0.1 µM",120%
same,"viability, T/C","second compound 10 µM, first compound 0.000316 µM",122%
same,"viability, T/C","second compound 10 µM, first compound 0.001 µM",104%
same,"viability, T/C","second compound 10 µM, first compound 0.00316 µM",99.5%
same,"viability, T/C","second compound 10 µM, first compound 0.01 µM",121%
same,"viability, T/C","second compound 10 µM, first compound 0.0316 µM",111%
same,"viability, T/C","second compound 10 µM, first compound 0.1 µM",118%
